Several values for one entry are separate records, joined by “and”; a condition that tells them apart may be missing. Equal values may be shown once.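 Where inhibition never reached the appropriate level, the endpoint shown equals the highest concentration tested. Otherwise, values were interpolated linearly from a five-concentration, 48-hour dose response in 96-well plates. GI50 marks 50% less growth. TGI is the concentration that stops growth completely.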
How the values were obtained:
Experiment in all cases: NCI tumour cell line growth inhibition, 48 h
HCT-116 colon = tested on: HCT-116 colon
OVCAR-8 ovarian = tested on: OVCAR-8 ovarian
MALME-3M melanoma = tested on: MALME-3M melanoma
UACC-257 melanoma = tested on: UACC-257 melanoma
SK-OV-3 ovarian = tested on: SK-OV-3 ovarian
NCI-H23 lung = tested on: NCI-H23 lung
CCRF-CEM leukemia = tested on: CCRF-CEM leukemia
HCT-15 colon = tested on: HCT-15 colon
RPMI-8226 leukemia = tested on: RPMI-8226 leukemia
DU-145 prostate = tested on: DU-145 prostate

| SMILES | TGI (HCT-116 colon) | GI50 (OVCAR-8 ovarian) | TGI (OVCAR-8 ovarian) | GI50 (MALME-3M melanoma) | TGI (MALME-3M melanoma) | TGI (UACC-257 melanoma) | GI50 (SK-OV-3 ovarian) | TGI (SK-OV-3 ovarian) | GI50 (NCI-H23 lung) | TGI (NCI-H23 lung) | GI50 (CCRF-CEM leukemia) | TGI (CCRF-CEM leukemia) | GI50 (HCT-15 colon) | TGI (HCT-15 colon) | GI50 (RPMI-8226 leukemia) | TGI (RPMI-8226 leukemia) | GI50 (HCT-116 colon) | GI50 (DU-145 prostate) | TGI (DU-145 prostate) | GI50 (UACC-257 melanoma) |
| --- | --- | --- | --- | --- | --- | --- | --- | --- | --- | --- | --- | --- | --- | --- | --- | --- | --- | --- | --- | --- |
| CC(=O)OCC1OC(OC2CC3C(C)(C)C(OC(C)=O)CC[C@]3(C)C3CCC45CC4(CC[C@H]5C(C)CC(O)[C@@H](O)C(C)(C)O)[C@]23C)C(O)C(O)C1O (stereo partly drawn) | 13.8 µM and 21.7 µM | 8.43 µM | 13.9 µM and 22.5 µM | 13.2 µM | 13.9 µM and 26 µM | 13.8 µM and 20.7 µM | 12.4 µM | 11.6 µM and 24.8 µM | 13.5 µM | 14.9 µM and 26.3 µM | 4.07 µM | 14.8 µM and 15.4 µM | 12 µM | 14 µM and 24.3 µM | 2.09 µM | 6.74 µM and 11.6 µM |  |  |  |  |
| N#CCc1ccc(C(C#N)/C(CCCC(=O)Nc2cccc([N+](=O)[O-])c2)=N\NC(=O)NN)cc1 (stereo not drawn) | > 100 µM |  | > 100 µM |  | > 100 µM | > 100 µM |  | > 100 µM |  | > 100 µM |  | > 100 µM |  | > 100 µM |  | > 100 µM |  |  |  |  |
| COc1ccc2c([nH]c3cc(O)c(C)cc32)c1C=O | > 25 µM |  | > 25 µM |  | > 25 µM |  |  | > 25 µM |  |  |  | > 25 µM |  | > 25 µM |  | > 25 µM |  |  |  |  |
| O=C(Nc1ccc(-n2cc(-c3ccncc3)c(-c3ccc(Cl)c(O)c3)n2)cc1)Nc1cc(C(F)(F)F)cc(C(F)(F)F)c1 | 3.14 µM | 1.99 µM | 5.48 µM |  |  | 5.22 µM | 2.13 µM | 5.43 µM | 2.13 µM | 4.91 µM |  |  | 1.9 µM | 4.3 µM |  |  | 1.61 µM | 1.78 µM | 3.34 µM | 2.01 µM |
| CC(=O)NC1=C(Nc2ccc(C)cc2)C(=O)c2ccccc2C1=O | 48.5 µM |  | > 75 µM |  | 22.8 µM | 51.5 µM |  | > 75 µM |  | 19.6 µM |  | 58.4 µM |  | 39.3 µM |  | 31.6 µM |  |  |  |  |
| O=C1CCCCCCCCCCC(=O)C2CCOCCOCCOCCC1Cc1cccc(n1)C2 | > 100 µM |  | > 100 µM |  | > 100 µM | > 100 µM |  | > 100 µM |  | > 100 µM |  | > 100 µM |  | > 100 µM |  | > 100 µM |  |  |  |  |
| CCCCCCCCCCC(C)CCCCCCC(=O)OCC(COP(=O)([O-])OCC[N+](C)(C)C)OC(=O)CCCCCCC(C)CCCCCCCCCC (stereo not drawn) | > 100 µM |  | > 100 µM |  | > 100 µM | > 100 µM |  | > 100 µM |  | > 100 µM |  | > 100 µM |  | > 100 µM |  | > 100 µM |  |  |  |  |
| COc1cc2c(c(OC)c1OC)-c1ccc(SC)c(=O)cc1[C@@H](NC(=O)c1ccc(OC(C)=O)cc1)CC2 | 0.0514 µM and 0.015 µM |  | 12.1 µM |  |  | 19.2 µM |  | 0.0683 µM and 0.0201 µM |  | 0.049 µM |  | > 100 µM |  |  |  |  |  |  |  |  |
| C1CNCCNCCNCCN1 | > 100 µM |  | > 100 µM |  | > 100 µM | > 100 µM |  | > 100 µM |  | > 100 µM |  | > 100 µM |  |  |  | > 100 µM |  |  |  |  |
| Clc1ccc(-n2nnc(C3=NCCCN3)c2-c2ccccc2)cc1 | > 100 µM |  | > 100 µM |  | > 100 µM | > 100 µM |  | > 100 µM |  | > 100 µM |  | > 100 µM |  | > 100 µM |  | > 100 µM |  |  |  |  |
| C=CC[C@H]1C[C@@]2(C)OC[C@H](C(C)C)N2C1=O | > 100 µM |  | > 100 µM |  | > 100 µM | > 100 µM |  |  |  | > 100 µM |  | > 100 µM |  | > 100 µM |  | > 100 µM |  |  |  |  |
| c1nc2cscc2c2cscc12 | > 100 µM |  | > 100 µM |  | > 100 µM | > 100 µM |  | > 100 µM |  | > 100 µM |  | > 100 µM |  | > 100 µM |  | > 100 µM |  |  |  |  |
| S=c1[nH]c(=S)c2sc(=S)n(-c3ccccc3)c2[nH]1 | > 100 µM |  | > 100 µM |  | > 100 µM | > 100 µM |  | > 100 µM |  | > 100 µM |  | > 100 µM |  | > 100 µM |  | > 100 µM |  |  |  |  |
| CC(=O)[CH-]C(=O)c1ccccc1.CC(=O)[CH-]C(=O)c1ccccc1.CC(=O)[CH-]C(=O)c1ccccc1.[Tl+3] | > 100 µM | 59.3 µM | > 100 µM | 20.2 µM | 49.2 µM | 82.7 µM | > 61.8 µM | > 100 µM | 45.4 µM | > 100 µM | 6.81 µM | 30.9 µM | 41.7 µM | > 100 µM | 11.1 µM | > 100 µM | 28.2 µM |  |  | 26.3 µM |
| Cc1nc2c(=O)[nH]c(=O)n(C)c2[nH]c1=O | > 100 µM |  | > 100 µM |  | > 100 µM | > 100 µM |  | > 100 µM |  | > 100 µM |  |  |  | > 100 µM |  | > 100 µM |  |  |  |  |
